{
  "source": "patent US20250325699A1",
  "about": "“POLYPEPTIDES AND METHODS OF USE” (Aldevron, LLC, priority 2022, published 2025)",
  "system": "HepG2 cells",
  "assay": "In vitro transfection of HepG2 cells, normalized luciferase activity",
  "type": "cell-based",
  "conditions": "48 hours",
  "description": "FIGS. 4A and 4B are graphs showing normalized luciferase activity in HepG2 cells 48 hours after in vitro transfection. Lipid nanoparticles were formed with RALA-NLS polypeptides and 250 ng or 500 ng C3-fLuc1157 DNA at a molar ratio of 700, 1400, 2100, or 2800. […]\nFIGS. 4A and 4B are graphs showing normalized luciferase activity in HepG2 cells 48 hours after in vitro transfection. Lipid nanoparticles were formed with RALA-NLS polypeptides and 250 ng or 500 ng C^3-fLuc1157 DNA at a molar ratio of 700, 1400, 2100, or 2800.",
  "data": [
    {"sequence": "WEARLARALARALARHLARALARALRACEAPKKKRKV [RALA-NLS]", "values": [
      {"measurement": "transfection efficiency in slightly cationic LNPs (20% DOTAP)", "setting": "FIG. 4B (20% DOTAP) versus FIG. 4A (DOPE)", "result": "more pronounced"},
      {"measurement": "transfection with higher amounts of DNA (500 ng) as compared to lower amounts (250 ng)", "setting": "FIGS. 4A and 4B", "result": "more efficient transfection"},
      {"measurement": "transfection improvement compared to LNP without polypeptide", "setting": "LNP with 700× polypeptide (molar ratio to C^3-fLuc1157 DNA)", "result": "~20", "unit": "fold"},
      {"measurement": "transfection improvement compared to LNP without polypeptide", "setting": "LNP with 1400× polypeptide (molar ratio to C^3-fLuc1157 DNA)", "result": "~35", "unit": "fold"},
      {"measurement": "transfection improvement compared to LNP without polypeptide", "setting": "LNP with 2100× polypeptide (molar ratio to C^3-fLuc1157 DNA)", "result": "~50", "unit": "fold"},
      {"measurement": "transfection improvement compared to LNP without polypeptide", "setting": "LNP with 2800× polypeptide (molar ratio to C^3-fLuc1157 DNA)", "result": "~65", "unit": "fold"}
    ]}
  ]
}
